Results reported in patent US20050282840A1, “Methods of modulating neurotrophin-mediated activity” (PainCeptor Pharma Corporation, priority 2004, published 2005).
Like-named read-outs stand apart in the source and are kept apart here.

Assays:
[1] = molecular target: T1, p75^NTR receptors (PC12 cells) (Rattus norvegicus, UniProt P07174); assay: Basic screening assay: binding of 125I-BDNF to PC12 cells; settings: read-out: BDNF Activity % Maximal Binding
T1 construct: endogenous in cells; host or cells: PC12 cells
T1 sequence (P07174 30-425): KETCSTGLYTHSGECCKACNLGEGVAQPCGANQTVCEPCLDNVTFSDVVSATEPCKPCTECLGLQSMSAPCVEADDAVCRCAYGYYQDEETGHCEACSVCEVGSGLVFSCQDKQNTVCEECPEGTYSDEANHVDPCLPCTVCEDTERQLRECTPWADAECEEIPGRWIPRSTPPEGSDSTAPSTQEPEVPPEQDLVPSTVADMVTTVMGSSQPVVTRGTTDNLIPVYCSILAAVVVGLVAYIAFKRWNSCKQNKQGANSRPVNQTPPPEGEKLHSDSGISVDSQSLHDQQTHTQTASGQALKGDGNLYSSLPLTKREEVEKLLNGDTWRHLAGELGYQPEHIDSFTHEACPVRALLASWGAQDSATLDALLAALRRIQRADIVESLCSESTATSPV
T1 sequence (P23560 129-247 partner): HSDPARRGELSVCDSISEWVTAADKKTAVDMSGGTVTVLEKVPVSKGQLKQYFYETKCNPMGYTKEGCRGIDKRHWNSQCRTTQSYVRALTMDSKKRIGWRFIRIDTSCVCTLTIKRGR
Procedure: (§1) The compounds were screened for effects on binding of ^125I-BDNF or ^125I-NGF to PC12 cells (p75^NTR receptors), and those that inhibited binding were further tested to determine the EC50 for this inhibition.
(§2) PC12 cells were cultured and prepared for binding assays as described in Example 1.
(§3) Lypophilized Peprotech human recombinant BDNF (Cedarlane Laboratories, Toronto, Canada, cat. # PE 450-02-10) was reconstituted under sterile conditions to 3.5 μM in sterile HKR/1%BSA, and either used immediately or stored in aliquots of 20 μl at −80° C. Immediately prior to use, a 15 nM (30×) solution of ^125I-BDNF or ^125I-NGF was prepared in HKR buffer, and was used at 0.5 nM final concentration.
(§4) Test Compounds were dissolved to 10 mM in DMSO, and those that were not initially soluble were warmed to 40-50° C. and vortexed. Those compounds that were still not in solution were reported as such. Compounds were then stored in this form at −20° C. until use. Immediately before experiments, 100 mM compounds were diluted to 10 mM in DMSO (1:10), followed by a further dilution to 1 mM (1:10) with distilled water, and a further dilution to 500 μM (1:1) with HKR.
(§5) Assays to determine maximum binding (Bmax), non-specific binding (NSB), and binding in the presence of each test compound (e.g., x, y) were performed at least in duplicate. In a total volume of 300 μL, 4×10^6 PC12 cells were incubated, rotating for 2 h at 4° C. with the following:
(§6) At the conclusion of the binding reaction, 100 μL aliquots of the reaction mixtures were carefully layered over 200 μL of a 10% glycerol solution in a 0.4 mL tube, and subjected to centrifugation in a microcentrifuge for 2 minutes at half maximum speed. The cell pellets containing the bound ^125I-BDNF or ^125I-NGF were then measured using a gamma counter. The mean values of the replicates were then calculated to determine the value for maximum binding (Bmax) and nonspecific binding (NSB), and binding in the presence of test compound at 50 μM (Bx). Specific binding (SB) was measured by subtracting the NSB from the Bmax.

[2] = tested on: p75^NTR receptors (PC12 cells); assay: Basic screening assay: binding of 125I-NGF to PC12 cells; settings: Table 1; test compound 50 μM; 0.5 nM 125I-NGF; PC12 cells; 2 h at 4° C.; specific binding as percent of control
Procedure: as §1, §2
Lyophilized Serotec mouse 2.5S NGF (Cedarlane Laboratories, Toronto, Canada, cat. # PMP 04Z) was reconstituted under sterile conditions to 1 mg/mL (38 μM) in sterile 0.2% acetic acid, and 100 μL or 50 μL aliquots were stored frozen at −80° C.
as §3, §4, §5
as §6, with “Bmax. Specific binding in the presence of the test compound (SBx) was determined by subtracting the NSB from the Bx for each test compound; and each SBx was divided by SB and multiplied by 100 to give the specific binding in the presence of the compound as a percent of control specific binding.” for “Bmax.”

[3] = Table 1, test compound 50 μM, 0.5 nM 125I-BDNF, PC12 cells, 2 h at 4° C., specific binding as percent of control

Row | Compound | activity at 50 µM [1, 3] | NGF Activity % Maximal Binding [2] | activity at 50 µM [1]
1 | CCOC(=O)CN1C(=O)S/C(=C/c2ccc(-c3ccc(C(=O)O)c(Cl)c3)o2)C1=O [Compound 24, 2-Chloro-4-[5-(3-ethoxycarbonylmethyl-2,4-dioxo-thiazolidin-5-ylidenemethyl)furan-2-yl]benzoic acid] | 0 to 10% | * (50 < *) | 
2 | Cc1cc(-c2ccc(C=C3C(=O)NC(=S)NC3=O)o2)cc([N+](=O)[O-])c1C [Compound 25, 5-[5-(3,4-Dimethyl-5-nitrophenyl)furan-2-ylmethylene]-2-thioxo-dihydro-pyrimidine-4,6-dione] |  | * (50 < *) | 0 to 10%
3 | O=C1NC(=O)C(=Cc2ccc(-c3ccc([N+](=O)[O-])cc3)o2)C(=O)N1 [Compound 26, 5-[5-(4-Nitrophenyl)furan-2-ylmethylene]-pyrimidine-2,4,6-trione] |  | * (50 < *) | 0 to 10%
4 | O=C(O)c1ccc(-c2ccc(/C=C3/NC(=O)N(Cc4ccccc4F)C3=O)o2)cc1Cl [Compound 27, 2-Chloro-4-{5-[1-(2-fluorobenzyl)-2,5-dioxo-imidazolidin-4-ylidenemethyl]furan-2-yl}benzoic acid] | 0 to 10% | * (50 < *) | 
5 | O=C(O)c1cc(-c2ccc(/C=C3\NC(=O)N(Cc4ccc(F)cc4)C3=O)o2)ccc1Cl [Compound 28, 2-Chloro-5-{5-[1-(4-fluorobenzyl)-2,5-dioxo-imidazolidin-4-ylidenemethyl]furan-2-yl}benzoic acid] | 10 to 20% | * (50 < *) | 
6 | COC(=O)C(C)N1C(=O)S/C(=C/c2ccc(-c3cc(C(=O)O)ccc3C)o2)C1=O (stereo not drawn) [Compound 29, 3-{5-[3-(1-Methoxycarbonyl-ethyl)-2,4-dioxo-thiazolidin-5-ylidenemethyl]furan-2-yl}-4-methylbenzoic acid] | 10 to 20% | * (50 < *) | 
7 | COc1ccc(-c2ccc(C=C3C(=O)N(C)C(=O)N(C)C3=O)o2)cc1[N+](=O)[O-] [Compound 31, 5-[5-(4-Methoxy-3-nitrophenyl)furan-2-ylmethylene]-1,3-dimethyl-pyrimidine-2,4,6-trione] |  | * (50 < *) | 10 to 20%
8 | COC(=O)c1ccc(-c2ccc(/C=C3\C(=O)NC(=O)N(Cc4ccccc4)C3=O)o2)cc1 [Compound 32, 4-[5-(1-benzyl-2,4,6-trioxo-tetrahydro-pyrimidin-5-ylidenemethyl)furan-2-yl]benzoic acid methyl ester] |  | * (50 < *) | 10 to 20%
9 | O=C1NC(=O)/C(=C\c2ccc(-c3ccc([N+](=O)[O-])cc3Cl)o2)S1 [Compound 33, 5-[5-(2-Chloro-4-nitrophenyl)furan-2-ylmethylene]-thiazolidine-2,4-dione] | 10 to 20% | * (50 < *) | 
10 | COCCN1C(=O)C(=Cc2ccc(-c3cccc([N+](=O)[O-])c3)o2)SC1=S [Compound 34, 3-(2-Methoxy-ethyl)-5-[5-(3-nitrophenyl)furan-2-ylmethylene]-2-thioxo-thiazolidin-4-one] | 10 to 20% | * (50 < *) | 
11 | O=C(O)c1ccc(-c2ccc(/C=C3/NC(=O)N(c4cccc(Cl)c4)C3=O)o2)cc1Cl [Compound 36, 2-Chloro-4-{5-[1-(3-chlorophenyl)-2,5-dioxo-imidazolidin-4-ylidenemethyl]furan-2-yl}benzoic acid] | 10 to 20% | * (50 < *) | 
12 | COc1ccc(CN2C(=O)/C(=C\c3ccc(-c4ccc(S(N)(=O)=O)cc4)o3)SC2=S)cc1 [Compound 37, 4-{5-[3-(4-Methoxybenzyl)-4-oxo-2-thioxo-thiazolidin-5-ylidenemethyl]furan-2-yl}benzenesulfonamide] | 20 to 30% | * (50 < *) | 
13 | O=C(O)CN1C(=O)C(=Cc2ccc(-c3ccc([N+](=O)[O-])cc3)o2)SC1=S [Compound 38, {5-[5-(4-Nitrophenyl)furan-2-ylmethylene]-4-oxo-2-thioxo-thiazolidin-3-yl}-acetic acid] | 20 to 30% | * (50 < *) | 
14 | CN1C(=O)NC(=O)C(=Cc2ccc(-c3ccc([N+](=O)[O-])cc3)o2)C1=O [Compound 39, 1-Methyl-5-[5-(4-nitrophenyl)furan-2-ylmethylene]-pyrimidine-2,4,6-trione] |  | * (50 < *) | 20 to 30%
15 | Cc1cc([N+](=O)[O-])ccc1-c1ccc(C=C2SC(=S)N(CC(=O)O)C2=O)o1 [Compound 40, {5-[5-(2-Methyl-4-nitrophenyl)furan-2-ylmethylene]-4-oxo-2-thioxo-thiazolidin-3-yl}-acetic acid] | 20 to 30% | * (50 < *) | 
16 | Cc1cc(C(=O)O)ccc1-c1ccc(/C=C2/NC(=O)NC2=O)o1 [Compound 41, 4-[5-(2,5-Dioxo-imidazolidin-4-ylidenemethyl)furan-2-yl]-3-methylbenzoic acid] | 20 to 30% | * (50 < *) | 
17 | Cc1cccc(N2NC(=O)/C(=C/c3ccc(-c4ccc(Cl)c([N+](=O)[O-])c4)o3)C2=O)c1 [Compound 44, 4-[5-(4-Chloro-3-nitrophenyl)furan-2-ylmethylene]-1-m-tolyl-pyrazolidine-3,5-dione] | 30 to 40% | * (50 < *) | 
18 | CN1C(=O)/C(=C/c2ccc(-c3ccc(S(N)(=O)=O)cc3)o2)SC1=S [Compound 45, 4-[5-(3-Methyl-4-oxo-2-thioxo-thiazolidin-5-ylidenemethyl)furan-2-yl]benzenesulfonamide] | 30 to 40% | * (50 < *) | 
19 | COC(=O)c1ccc(-c2ccc(/C=C3/NC(=O)N(Cc4ccc(F)cc4)C3=O)o2)c(C)c1 [Compound 46, 4-{5-[1-(4-Fluorobenzyl)-2,5-dioxo-imidazolidin-4-ylidenemethyl]furan-2-yl}-3-methylbenzoic acid methyl ester] | 30 to 40% | * (50 < *) | 
20 | O=C1NC(=S)N/C1=C/c1ccc(-c2ccc([N+](=O)[O-])cc2Cl)o1 [Compound 47, 5-[5-(2-Chloro-4-nitrophenyl)furan-2-ylmethylene]-2-thioxo-imidazolidin-4-one] | 30 to 40% | * (50 < *) | 
21 | CC1=NN(c2ccc(F)cc2)C(=O)/C1=C\c1ccc(-c2ccc(C(=O)O)cc2)o1 [Compound 49, 4-{5-[1-(4-Fluorophenyl)-3-methyl-5-oxo-1,5-dihydro-pyrazol-4-ylidenemethyl]furan-2-yl}benzoic acid] | 30 to 40% | * (50 < *) | 
